Measurements reported in patent US12691070B2, “Cationic lipids and preparation method thereof” (RiboX Therapeutics HK Limited, priority 2023, dated 2026).

Legend:
[1] = tested on: RAW 264.7 cells; assay: In vitro toxicity (CellTiter-Glo cell viability), RAW 264.7; assay type: cell-based; details: cirRNA (SEQ ID NO: 1) LNPs; RAW 264.7 cells;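 also: percent of untreated cells luminescence signal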
How it was run: (§1)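 Viability after a 72 h incubation with 1 μg/mL RNA-LNP formulations was assessed luminometrically using CellTiter-Glo.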

[2] = tested on: Hep G2 cells; assay: In vitro toxicity (CellTiter-Glo cell viability), Hep G2; assay type: cell-based; details: cirRNA (SEQ ID NO: 1) LNPs; Hep G2 cells;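 also: percent of untreated cells luminescence signal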
How it was run: as §1

[3] = RNA encapsulation efficacy by Quant-IT Ribogreen kit; assay type: physicochemical; details: LNP with cirRNA (SEQ ID NO: 1)
How it was run: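 Encapsulation efficacy came from Ribogreen fluorescence of LNPs compared with Triton X-100-lysed LNPs. The particles carried luciferase-encoding circular or linear RNA at an ionizable lipid:ribonucleotide ratio of 15 or 6.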

[4] = LNP size and polydispersity index (PDI) by dynamic light scattering; assay type: physicochemical; details: LNP with cirRNA (SEQ ID NO: 1); for Size: in nm (unit assumed)
How it was run: (§2)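 Ribogreen fluorescence with and without Triton X-100 gave encapsulation as 100% − (intact/lysed) signal; DLS size, PDI and zeta potential measured on a Zetasizer. Particles: 50:10:38.5:1.5 lipid mix, luciferase circRNA or mRNA, lipid:nucleotide 15 or 6, microfluidic assembly at pH 4.5, PBS-dialyzed.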

[5] = LNP zeta potential (Zetasizer); assay type: physicochemical; details: LNP with cirRNA (SEQ ID NO: 1)
How it was run: as §2

[6] = tested on: BALB/C mice; assay: In vivo expression, whole-body luminescence (IVIS); details: cirRNA (SEQ ID NO: 1) LNPs, BALB/C mice
Method: 6-8 week old, female BALB/C mice were injected with 0.05 mg*kg-1 of RNA-LNPs encoding for firefly-luciferase by intravenous injection. At 6 hours post injection, animals were intraperitoneally injected with 15 mg/ml of Luciferin substrate and whole-body luminescence was determined by a bioluminescent in vivo imaging system (IVIS).

[7] = tested on: Hep G2 cells; assay: In vitro expression of firefly-luciferase, Hep G2; assay type: cell-based; details: cirRNA (SEQ ID NO: 1) LNPs; firefly-luciferase luminescence; Hep G2 cells
How it was run: (§3)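 Transfection used 100 ng/mL luciferase-encoding RNA-LNPs; activity in lysates was determined at 72 h.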

[8] = tested on: RAW 264.7 cells; assay: In vitro expression of firefly-luciferase, RAW 264.7; assay type: cell-based; details: cirRNA (SEQ ID NO: 1) LNPs; firefly-luciferase luminescence; RAW 264.7 cells
How it was run: as §3

CCCCCCCCCCCOC(=O)CCCCCN(CCCCCCCC(=O)OC(CCCCCCCC)CCCCCCCC)CCOC(=O)NCCN(C)C [Lipid 158, heptadecan-9-yl 2-methyl-6-oxo-10-(6-oxo-6-(undecyloxy)hexyl)-7-oxa-2,5,10-triazaoctadecan-18-oate]
In vitro Viability RAW [1]: 0%
In vitro Viability HepG2 [2]: 64%
Encapsulation Efficiency % [3]: 72%
PDI [4]: 0.2315
Size [4]: 97.72
Zeta (mV) [5]: 6.058 mV
In vivo Expression (Whole Body) [6]: 1.62E+07
In vitro Expression HepG2 [7]: 1.24E+06
In vitro Expression RAW [8]: 1.37E+04

CCCCCCCCCCCOC(=O)CCCCCN(CCCCCCCC(=O)OC(CCCCCCCC)CCCCCCCC)CCOC(=O)NCc1ncc[nH]1 [Lipid 159, heptadecan-9-yl 8-((2-((((1H-imidazol-2-yl)methyl)carbamoyl)oxy)ethyl)(6-oxo-6-(undecyloxy)hexyl)amino)octanoate]
In vitro Viability RAW [1]: 90%
In vitro Viability HepG2 [2]: 92%
Encapsulation Efficiency % [3]: 84%
PDI [4]: 0.1754
Size [4]: 57.86
Zeta (mV) [5]: −5.631 mV
In vivo Expression (Whole Body) [6]: 1.95E+07
In vitro Expression HepG2 [7]: 8.41E+05
In vitro Expression RAW [8]: 4.41E+04

CCCCCCCCCCCOC(=O)CCCCCN(CCCCCCCC(=O)OC(CCCCCCCC)CCCCCCCC)CCOC(=O)NCCN1CCOCC1 [Lipid 161]
In vitro Viability RAW [1]: 81%
In vitro Viability HepG2 [2]: 95%
Encapsulation Efficiency % [3]: 75%
PDI [4]: 0.08727
Size [4]: 58.97
Zeta (mV) [5]: −10.23 mV
In vivo Expression (Whole Body) [6]: 1.88E+07
In vitro Expression HepG2 [7]: 4.62E+04
In vitro Expression RAW [8]: 6.74E+03

CCCCCCCCCCCOC(=O)CCCCCN(CCCCCCCC(=O)OC(CCCCCCCC)CCCCCCCC)CCOC(=O)NCCCN(C)C [Lipid 162]
In vitro Viability RAW [1]: 86%
In vitro Viability HepG2 [2]: 83%
Encapsulation Efficiency % [3]: 76%
PDI [4]: 0.3875
Size [4]: 86.23
Zeta (mV) [5]: 14.91 mV
In vivo Expression (Whole Body) [6]: 1.01E+06
In vitro Expression HepG2 [7]: 4.27E+05
In vitro Expression RAW [8]: 3.76E+03

CCCCCCCCCCCOC(=O)CCCCCN(CCCCCCCC(=O)OC(CCCCCCCC)CCCCCCCC)CCOC(=O)NCCCn1ccnc1 [Lipid 163]
In vitro Viability RAW [1]: 88%
In vitro Viability HepG2 [2]: 92%
Encapsulation Efficiency % [3]: 79%
PDI [4]: 0.1586
Size [4]: 61.87
Zeta (mV) [5]: −3.271 mV
In vivo Expression (Whole Body) [6]: 7.96E+06
In vitro Expression HepG2 [7]: 5.77E+04
In vitro Expression RAW [8]: 3.32E+03

CCCCCCCCCCCOC(=O)CCCCCN(CCCCCCCC(=O)OC(CCCCCCCC)CCCCCCCC)CCOC(=O)NCCN1CCCC1 [Lipid 164]
In vitro Viability RAW [1]: 86%
In vitro Viability HepG2 [2]: 74%
Encapsulation Efficiency % [3]: 75%
PDI [4]: 0.2218
Size [4]: 76.41
Zeta (mV) [5]: 3.42 mV
In vivo Expression (Whole Body) [6]: 7.11E+07
In vitro Expression HepG2 [7]: 3.92E+06
In vitro Expression RAW [8]: 9.56E+04

CCCCCCCCCCC(CCCCCCCC)COC(=O)CCCCCN(CCCCCC(=O)OCC(CCCCCCCC)CCCCCCCCCC)CCOC(=O)NCCCN(C)C (stereo not drawn) [Lipid 166]
In vitro Viability RAW [1]: 12%
In vitro Viability HepG2 [2]: 22%
Encapsulation Efficiency % [3]: 78%
PDI [4]: 0.2013
Size [4]: 71.24
Zeta (mV) [5]: 4.157 mV
In vivo Expression (Whole Body) [6]: 6.43E+05
In vitro Expression HepG2 [7]: 2.17E+07
In vitro Expression RAW [8]: 1.48E+06

CCCCCCCCCCC(CCCCCCCC)COC(=O)CCCCCN(CCCCCC(=O)OCC(CCCCCCCC)CCCCCCCCCC)CCOC(=O)NCCCn1ccnc1 (stereo not drawn) [Lipid 167]
In vitro Viability RAW [1]: 90%
In vitro Viability HepG2 [2]: 102%
Encapsulation Efficiency % [3]: 82%
PDI [4]: 0.0668
Size [4]: 61.26
Zeta (mV) [5]: −3.412 mV
In vivo Expression (Whole Body) [6]: 9.22E+06
In vitro Expression HepG2 [7]: 8.85E+04
In vitro Expression RAW [8]: 2.79E+04

CCCCCCCCCCC(CCCCCCCC)COC(=O)CCCCCN(CCCCCC(=O)OCC(CCCCCCCC)CCCCCCCCCC)CCOC(=O)NCc1ncc[nH]1 (stereo not drawn) [Lipid 171]
In vitro Viability RAW [1]: 88%
In vitro Viability HepG2 [2]: 97%
Encapsulation Efficiency % [3]: 77%
PDI [4]: 0.1297
Size [4]: 55.9
Zeta (mV) [5]: −5.824 mV
In vivo Expression (Whole Body) [6]: 5.09E+07
In vitro Expression HepG2 [7]: 3.04E+05
In vitro Expression RAW [8]: 2.44E+05

CCCCCCCCCCC(CCCCCCCC)COC(=O)CCCCCN(CCCCCC(=O)OCC(CCCCCCCC)CCCCCCCCCC)CCOC(=O)NCCCN(CC)CC (stereo not drawn) [Lipid 172]
In vitro Viability RAW [1]: 90%
In vitro Viability HepG2 [2]: 41%
Encapsulation Efficiency % [3]: 83%
PDI [4]: 0.2521
Size [4]: 67.53
Zeta (mV) [5]: 1.36 mV
In vivo Expression (Whole Body) [6]: 2.14E+07
In vitro Expression HepG2 [7]: 1.12E+07
In vitro Expression RAW [8]: 5.83E+05

CCCCCCCCCCC(CCCCCCCC)COC(=O)CCCCCN(CCCCCC(=O)OCC(CCCCCCCC)CCCCCCCCCC)CCOC(=O)NCCN1CCN(C)CC1 (stereo not drawn) [Lipid 173]
In vitro Viability RAW [1]: 90%
In vitro Viability HepG2 [2]: 57%
Encapsulation Efficiency % [3]: 82%
PDI [4]: 0.3423
Size [4]: 73.65
Zeta (mV) [5]: −0.5735 mV
In vivo Expression (Whole Body) [6]: 3.45E+07
In vitro Expression HepG2 [7]: 3.32E+07
In vitro Expression RAW [8]: 9.48E+05

CCCCCCCCCCC(CCCCCCCC)COC(=O)CCCCCN(CCCCCC(=O)OCC(CCCCCCCC)CCCCCCCCCC)CCOC(=O)NCCN1CCOCC1 (stereo not drawn) [Lipid 174]
In vitro Viability RAW [1]: 92%
In vitro Viability HepG2 [2]: 89%
Encapsulation Efficiency % [3]: 89%
PDI [4]: 0.0911
Size [4]: 57.29
Zeta (mV) [5]: −4.35 mV
In vivo Expression (Whole Body) [6]: 5.15E+07
In vitro Expression HepG2 [7]: 1.56E+05
In vitro Expression RAW [8]: 1.30E+04

CCCCCCCCCC(=O)OCCCCCCCN(CCCCCCCOC(=O)CCCCCCCCC)CCOC(=O)NCCN1CCN(C)CC1 [Lipid 178]
In vitro Viability RAW [1]: 92%
In vitro Viability HepG2 [2]: 99%
Encapsulation Efficiency % [3]: 95%
PDI [4]: 0.1534
Size [4]: 61.85
Zeta (mV) [5]: 16.19 mV
In vivo Expression (Whole Body) [6]: 1.31E+06
In vitro Expression HepG2 [7]: 6.17E+04
In vitro Expression RAW [8]: 1.31E+03

CCCCC/C=C\CCOC(=O)CCCCCN(CCCCCCCCOC(=O)C(CCCCCC)CCCCCCCC)CCOC(=O)NCc1ncc[nH]1 (stereo not drawn) [Lipid 185]
In vitro Viability RAW [1]: 85%
In vitro Viability HepG2 [2]: 90%
Encapsulation Efficiency % [3]: 88%
PDI [4]: 0.102
Size [4]: 69.89
Zeta (mV) [5]: −1.137 mV
In vivo Expression (Whole Body) [6]: 1.22E+08
In vitro Expression HepG2 [7]: 9.12E+03
In vitro Expression RAW [8]: 5.29E+04
